Measurements reported in patent US12303891B2, “Emulating vascular cellular physiologies” (CALIFORNIA NORTHSTATE COLLEGE OF PHARMACY, LLC, priority 2021, dated 2025).
Entries after “also recorded” stand apart in the source; their conditions may differ.

What was measured:
[1] = system: PAH-ECs/SMCs/ADCs of male and female patients; experiment: PAH chip, sex-specific therapeutic response to bosentan; format: cell-based, human
Method: As reported in our recent publication, we first characterized the cells for various markers and seeded control and PAH cells on the respective channels of the chips at a density of 2×10^6 cells/mL of adventitial cells (ADCs) or SMCs and 5˜10×10^6 cells/mL of ECs. SMCs were seeded in rat tail type I collagen solution (Corning Inc., NY). We fed the cells with the media via the two outermost channels. In experiment when chips were seeded with three different cell types, we first instilled collagen (2 mg/mL) alone or SMC mixed with collagen into the medial channel and allowed 20 minutes for collagen to form gel and then seeded ECs and ADCs 20 minutes apart. The cell-laden chips thus prepared were placed in a humidified chamber and let them grow in a CO2 incubator for 5-8 days. Each day, the medium was removed and replaced with 150 μL fresh media.
(§1) Into chips prepared by seeding PAH-ECs/SMCs/ADCs of male and female patients, we infused 50 µM bosentan starting from day 4 of cell seeding and continued the infusion for an additional 3 days. To determine whether the drug had any preventive effects, we treated the cell-laden chips with 50 µM bosentan on day 1 of seeding and let the cells grow for 6 more days with no treatment. For studying the influence of growth hormones and anti-PAH drug on cellular functions and remodeling, we seeded male and female PAH-ECs, QD705-labeled or unlabeled PAH-SMCs and PAH-ADCs. We assessed the deposition of human ColT1, expression of aromatase (an enzyme that synthesizes estrogen) and CYP1B1 (an estrogen-metabolizing enzyme) and then measured arterial remodeling and muscularization.
For assessing the effect of the drug pulmonary arterial thickening, we assumed that ECs and SMCs grow in their respective channels, the intimal and medial layers of the chip, not outside their assigned layers. If ECs or SMCs grow outside their original seeding channels, we considered out-of-designated channel growth as intimal or medial layer thickening, respectively. We also considered the migration of SMCs from the medial to intimal as muscularization and that the number of SMCs that grow in the intimal layers is the degree of muscularization. These assumptions were based on PAH pathology whereby non-muscularized distal arteries/arterioles become muscularized and show SM-like cells from preexisting SMCs. We used phase contrast microscopy, immunostaining, and quantum dot labeling to draw line between the growth zones of different cells and for counting and identifying cells.
For demarcating boundaries of different cell growth areas, we first imaged the chips using a phase-contrast microscope and then stained the cells for imaging using a confocal microscope. For calculating the extent of intimal and medial thickening, we calculated the average of the lengths of five to seven diametrically uneven points of the same layer. To determine the degree of muscularization, we grew QD-labeled N-SMC/PAH-SMCs on the chip and stained the chips for FSP-1 and CD31 antibodies and counted the number of FSP-1+CD31− or QD-labeled SMCs in all three layers of the chip.

[2] = system: CMs and PAH-ECs; experiment: PAH-RVH chip prepared with CMs and PAH-ECs, efficacy of anti-PAH drugs; format: cell-based, human; conditions: chips prepared with CMs and PAH-ECs
Excerpt: The modified chip device can be used, for example, for growing both cardiomyocytes (CMs) in the study of cardiovascular disease, and pulmonary arterial endothelial cells (ECs) in the study of pulmonary vascular diseases. The pulmonary arterial ECs, for example, can be collected from the pulmonary arteries of healthy donors (N-ECs) and that of PAH patients (PAH-ECs). We have seen that PAH is an example of a disease that can benefit from improved treatments developed with the systems and methods taught herein. Through the growing of CMs and either N-ECs or PAH-ECs in respective compartments or channels, for example, we can measure the influence PAH-ECs on CMs by measuring various soluble cellular markers, assessing the contractility of CMs, evaluating the expression of genes by CMs, and study the influence of anti-PAH PAH drugs on the release of hypertrophy inducing agents and hypertrophic markers and CM contractility.
We developed a drug therapy using the systems and methods. We used two anti-PAH drugs, sildenafil and bosentan, on chips prepared with CMs and PAH-ECs, the drug reduced the extent of CM hypertrophy, improved the contractility, and reduced both hypertrophy-inducing agents and hypertrophic markers. From our study, one of skill will understand that the systems and methods can identify the interactions between PAH-afflicted ECs and CMs and assess the efficacy of anti-PAH drugs in ameliorating pulmonary arterial hypertension right ventricular hypertrophy (PAH-RVH).

[3] = system: PAH patients; experiment: Responsiveness of female and male PAH patients to anti-PAH drugs; format: in vivo, human; conditions: for responsiveness of female PAH patients: 'we have found'
[4] = system: PAH patients; conditions: female vs male PAH patients (p=0.3); cited from earlier work
[5] = system: PACs of female patients and male patients; experiment: Chips with PACs of female and male PAH patients treated with estrogen and growth factor; format: cell-based, human
Method: as §1
For assessing the effect of the drug pulmonary arterial thickening, we assumed that ECs and SMCs grow in their respective channels, the intimal and medial layers of the chip, not outside their assigned layers. If ECs or SMCs grow outside their original seeding channels, we considered out-of-designated channel growth as intimal or medial layer thickening, respectively. We also considered the migration of SMCs from the medial to intimal as muscularization and that the number of SMCs that grow in the intimal layers is the degree of muscularization. […]

[6] = bosentan-treated female vs male chips
[7] = early treatment, female chips compared with male counterparts
[8] = female chips, 50 µM bosentan infused from day 4 for 3 days
[9] = preventive: treated on day one after seeding, then 6 days without treatment, female vs male chips

In the case of `COc1ccccc1Oc1c(NS(=O)(=O)c2ccc(C(C)(C)C)cc2)nc(-c2ncccn2)nc1OCCO` [bosentan], the “ColT1a deposition, compartment-specific analysis” value [1, 6] is reported as “lower in bosentan-treated female chips than in the male chips”, the “laminin deposition, compartment-specific analysis” value [1, 6] is reported as “lower in bosentan-treated female chips than in the male chips” and the “responsiveness of female chips compared with male chips” value ([1]; chips with cells from female vs male PAH patients, 50 µM bosentan) is reported as “more responsive”. The “intimal deposition of ColT1a” value [1, 7] was “decreases”, the “intimal deposition of laminin” value [1, 7] was “decreases” and the “CYP1B1 expression in the medial layer” value [1, 8] was “lowered”. For the same molecule, the “migration of PAH-SMCs toward the luminal and intimal layers” value [1, 8] was “slowed”, the “thickening of the medial layer” value [1, 8] was “reduced” and the level of muscularization ([1]; female vs male chips, counting QD705+ PAH-SMCs in intimal layers) was “lower level of muscularization”. For the same molecule, the “expression of CYP1B1” value [1, 9] was “declined more in the medial layer of the female chips than in the male chips”, the “presence of PAH-SMCs in the endothelial layer” value [1, 9] was “lower in the female chips than in the male chips” and the “contractility of CMs” value [2] was “improved”. The “extent of CM hypertrophy” value [2] was “reduced”, the hypertrophic markers [2] was “reduced” and the hypertrophy-inducing agents [2] was “reduced”. The “responsiveness of female PAH patients” value [3] was “more responsive” and the “responsiveness of female PAH patients compared with male patients, clinical data” value [4] was “more responsive; also recorded: responsive”.
For `CCCCC[C@H](O)/C=C/[C@@H]1[C@H]2C/C(=C/CCCC(=O)O)O[C@H]2C[C@H]1O` [epoprostenol], the “responsiveness of female PAH patients” value [3] was “more responsive”.
In the case of `CCCNS(=O)(=O)Nc1ncnc(OCCOc2ncc(Br)cn2)c1-c1ccc(Br)cc1` [macitentan], the “responsiveness of female PAH patients” value [3] is reported as “more responsive”.
In the case of `CC(C)N(CCCCOCC(=O)NS(C)(=O)=O)c1cnc(-c2ccccc2)c(-c2ccccc2)n1` [selexipag], the “responsiveness of female PAH patients” value [3] is reported as “more responsive”.
With `CCCc1nn(C)c2c(=O)[nH]c(-c3cc(S(=O)(=O)N4CCN(C)CC4)ccc3OCC)nc12` [sildenafil] the “contractility of CMs” value [2] was “improved”, the “extent of CM hypertrophy” value [2] was “reduced” and the hypertrophic markers [2] was “reduced”. For the same molecule, the hypertrophy-inducing agents [2] was “reduced” and the “responsiveness of male PAH patients” value ([3]; male PAH patients, 'we have also found') was “more responsive”.
For `CCCCC[C@H](O)CC[C@@H]1[C@H]2Cc3cccc(OCC(=O)O)c3C[C@H]2C[C@H]1O` [treprostinil], the “responsiveness of female PAH patients” value [3] was “more responsive”.
With Estrogen the “responsiveness of female chips compared with male chips” value ([5]; chips with PACs from female vs male PAH patients) was “more responsive” and the arterial remodeling ([5]; chips with PACs of female patients vs male patients) was “more extensive arterial remodeling”.
